System: adult subjects with TRD
Assay: Phase 2b randomised double-blind trial in TRD: MADRS total score, response, remission, sustained response
Format: in vivo, human
Settings: for Protocol-defined sustained response (MADRS response criteria from week 3 until week 12): up to week 12
Experimental: Studies with more rigorous designs are needed to better the therapeutic potential of psilocybin in treatment-resistant depression (TRD). The aim of this study was to assess the effectiveness of 3 different doses of psilocybin (1 mg, 10 mg, and 25 mg) in TRD.
This was a Phase 2b, international multicentre, randomized, fixed dose, double-blind trial. The study population included adult men and women, 18 years of age and older, with TRD. […] Augmentation counts as a second treatment, provided it was approved for the adjunctive treatment of MDD in that country.
The treatment period was determined the optimal therapeutic dose; 233 subjects were randomised in an approximately 1:1:1 ratio to receive 1 mg psilocybin (79 subjects), 10 mg psilocybin (75 subjects), or 25 mg psilocybin (79 subjects). Average patient baseline MADRS values were 31.9 in the 25 mg group, 33.0 in the 10 mg group, and 32.7 in the 1 mg group. This represents moderate to severe depression (≥31=cut-off for severe depression based on MADRS).
The primary objective of this study was to evaluate the efficacy of psilocybin (25 mg or 10 mg) compared to 1 mg, administered under supportive conditions to adult subjects with TRD, in improving depressive symptoms, as assessed by the change in the Montgomery-Asberg Depression Rating Scale (MADRS) total score from baseline. Baseline is defined as the assessment score obtained on Day-1. The primary time point is week 3; this variable was analyzed for the change from Baseline to day 1, and weeks 1, 3, 6, 9, and 12 of the study.
Additional objectives of this study were to assess the efficacy of psilocybin compared to 1 mg psilocybin on the: • (a) proportion of subjects with response defined as a ≥50% decrease in MADRS total score from baseline to week 3. This was assessed at day 1 and at weeks 1, 6, 9, and 12 of the study. • (b) proportion of subjects who have a sustained response at week 12. Sustained response is defined as the proportion of patients fulfilling response criteria at any visit up to and including week 3, that also fulfils response criteria at all subsequent visits up to and including week 12. Response is defined as ≥50% decrease in MADRS total score from baseline.
Subjects were randomized to the appropriate therapy after it was confirmed at baseline (Visit 2) that the subject remained eligible to participate in the study. Randomization was stratified by country. Each subject was assigned 1 treatment bottle containing 5 capsules packaged in a double-blind fashion, depending on the randomized treatment arm, the bottle will contain 1 of the following: • (a) 10-mg treatment bottle: 2×5-mg capsules and 3×placebo capsules; • (b) 25-mg treatment bottle: 5×5-mg capsules; or • (c) 1-mg treatment bottle: 1×1-mg capsule and 4×placebo capsules.
The change from baseline in MADRS total score at week 3 will be evaluated with a mixed effects model for repeated measures analysis. The model includes treatment, visit, study site, prior psychedelic experience, treatment by visit interaction, subject as a random effect, and baseline MADRS total score. Comparison of the psilocybin optimal dose versus 1 mg psilocybin was performed at the 0.05 testing level. A sensitivity analysis was performed on the primary mixed model repeated measures model adding treatment by study site or country interaction into the model. If it was significant (at the 10% level), then further investigations of sites were performed.
[…] additional efficacy endpoints that are dichotomous variables (proportion of subjects who are responders, remitters, and sustained responders) were analyzed using the Cochran Mantel Haenszel chi square test, stratified by country, to compare the psilocybin optimal therapeutic dose versus 1 mg psilocybin. A stepdown procedure to correct for multiplicity was employed. […]

With `CN(C)CCc1c[nH]c2cccc(OP(=O)(O)O)c12` [COMP360, psilocybin] the “MADRS total score change from baseline, LS mean” value (1 mg (N = 79), Day 2) was −9.0, the “MADRS total score change from baseline, LS mean” value (1 mg (N = 79), Week 1) was −6.8 and the “MADRS total score change from baseline, LS mean” value (1 mg (N = 79), Week 3) was −5.5. The “MADRS total score change from baseline, LS mean” value (1 mg (N = 79), Week 6) was −6.3, the “MADRS total score change from baseline, LS mean” value (1 mg (N = 79), Week 9) was −5.4 and the “MADRS total score change from baseline, LS mean” value (1 mg (N = 79), Week 12) was −6.0. The “Sustained response (MADRS response at week 3 and week 12 and at least one of week 6 and week 9)” value (1 mg group) was 10.1%, the “Protocol-defined sustained response (MADRS response criteria from week 3 until week 12)” value (1 mg group) was 10.1% and the “MADRS total score change from baseline, LS mean” value (10 mg (N = 75), Day 2) was −12.0. For the same compound, the “MADRS total score change from baseline, LS mean” value (10 mg (N = 75), Week 1) was −9.1, the “MADRS total score change from baseline, LS mean” value (10 mg (N = 75), Week 3) was −7.9 and the “MADRS total score change from baseline, LS mean” value (10 mg (N = 75), Week 6) was −6.0. For the same compound, the “MADRS total score change from baseline, LS mean” value (10 mg (N = 75), Week 9) was −6.1, the “MADRS total score change from baseline, LS mean” value (10 mg (N = 75), Week 12) was −5.7 and the “MADRS total score change from baseline, LS mean diff vs 1 mg” value (from here on “MADRS total score change … vs 1 mg”) (10 mg vs 1 mg, Day 2) was −3.0. For the same compound, the “MADRS total score change … vs 1 mg” value (10 mg vs 1 mg, Week 1) was −2.2, the “MADRS total score change … vs 1 mg” value (10 mg vs 1 mg, Week 3) was −2.4 and the “MADRS total score change … vs 1 mg” value (10 mg vs 1 mg, Week 6) was 0.3. For the same compound, the “MADRS total score change … vs 1 mg” value (10 mg vs 1 mg, Week 9) was −0.7, the “MADRS total score change … vs 1 mg” value (10 mg vs 1 mg, Week 12) was 0.3 and the “MADRS total score change from baseline, LS mean” value (25 mg (N = 79), Day 2) was −15.0. The “MADRS total score change from baseline, LS mean” value (25 mg (N = 79), Week 1) was −13.1, the “MADRS total score change from baseline, LS mean” value (25 mg (N = 79), Week 3) was −12.0 and the “MADRS total score change from baseline, LS mean” value (25 mg (N = 79), Week 6) was −11.7. For the same compound, the “MADRS total score change from baseline, LS mean” value (25 mg (N = 79), Week 9) was −9.4, the “MADRS total score change from baseline, LS mean” value (25 mg (N = 79), Week 12) was −9.6 and the “Sustained response (MADRS response at week 3 and week 12 and at least one of week 6 and week 9)” value (25 mg group) was 24.1%. The “Protocol-defined sustained response (MADRS response criteria from week 3 until week 12)” value (25 mg group) was 20.3%, the “MADRS total score change … vs 1 mg” value (25 mg vs 1 mg, Day 2) was −5.9 and the “MADRS total score change … vs 1 mg” value (25 mg vs 1 mg, Week 1) was −6.3. For the same compound, the “MADRS total score change … vs 1 mg” value (25 mg vs 1 mg, Week 3 (primary endpoint)) was −6.6, the “MADRS total score change … vs 1 mg” value (25 mg vs 1 mg, Week 6) was −5.3 and the “MADRS total score change … vs 1 mg” value (25 mg vs 1 mg, Week 9) was −4.0. The “MADRS total score change … vs 1 mg” value (25 mg vs 1 mg, Week 12) was −3.6.

Reference: US20250000881A1, “TREATMENT OF TREATMENT RESISTANT […] PSILOCYBIN” (COMPASS […], priority 2021, published 2025)
